Columns and labels:
[1] = system: Monochoria vaginalis, Presl.; assay: Preemergence weed control under flooded paddy conditions, MOOVA (Monochoria); assay type: in vivo; conditions: preemergence weeds, flooded paddy, rated three to four weeks after treatment
[2] = system: Oryza sativa, (L.) Tebonnet; assay: Rice tolerance to post-transplant applications under flooded paddy conditions (Example 187), ORYSAT (Rice, Tebonnet); conditions: rated three to four weeks after treatment
Sagittaria pygmaea, L. = assay: Preemergence weed control under flooded paddy conditions, SAGPY (Arrowhead (Pygmaea)); assay type: in vivo; conditions: preemergence weeds, flooded paddy, rated three to four weeks after treatment
Cyperus iria = assay: Preemergence weed control under flooded paddy conditions, CYPIR (Rice Flatsedge); assay type: in vivo; conditions: preemergence weeds, flooded paddy, rated three to four weeks after treatment
[3] = system: Cyperus serotinus, Rottb.; assay: Preemergence weed control under flooded paddy conditions, CYPSE (Flatsedge); assay type: in vivo; conditions: preemergence weeds, rated three to four weeks after treatment
[4] = system: Echinochloa oryzoides (Ard.) Fritsch.; assay: Preemergence weed control under flooded paddy conditions, ECHORC (Watergrass (Calif.)); assay type: in vivo; conditions: preemergence weeds, flooded paddy, rated three to four weeks after treatment
Note: meaning of each grade not given here.

SMILES | herbicidal effect rating, MOOVA ([1]; Rate 0.0320 kg/ha) | herbicidal effect rating, MOOVA ([1]; Rate 0.0620 kg/ha) | herbicidal effect rating, MOOVA ([1]; Rate 0.1250 kg/ha) | herbicidal effect rating, MOOVA ([1]; Rate 0.2500 kg/ha) | herbicidal effect rating ORYSAT ([2]; Rate 0.0320 kg/ha) | herbicidal effect rating ORYSAT ([2]; Rate 0.0620 kg/ha) | herbicidal effect rating ORYSAT ([2]; Rate 0.1250 kg/ha) | herbicidal effect rating ORYSAT ([2]; Rate 0.2500 kg/ha) | herbicidal effect rating, SAGPY (Sagittaria pygmaea, L.; Rate 0.0320 kg/ha) | herbicidal effect rating, SAGPY (Sagittaria pygmaea, L.; Rate 0.0620 kg/ha) | herbicidal effect rating, SAGPY (Sagittaria pygmaea, L.; Rate 0.1250 kg/ha) | herbicidal effect rating, SAGPY (Sagittaria pygmaea, L.; Rate 0.2500 kg/ha) | herbicidal effect rating, CYPIR (Cyperus iria; Rate 0.0320 kg/ha) | herbicidal effect rating, CYPIR (Cyperus iria; Rate 0.0620 kg/ha) | herbicidal effect rating, CYPIR (Cyperus iria; Rate 0.1250 kg/ha) | herbicidal effect rating, CYPIR (Cyperus iria; Rate 0.2500 kg/ha) | herbicidal effect rating, CYPSE ([3]; Rate 0.0320 kg/ha) | herbicidal effect rating, CYPSE ([3]; Rate 0.0620 kg/ha) | herbicidal effect rating, CYPSE ([3]; Rate 0.2500 kg/ha) | herbicidal effect rating, ECHORC ([4]; Rate 0.2500 kg/ha) | other results
COc1cccc(-c2nsc3ccc(-n4c(=O)cc(C(F)(F)F)n(C)c4=O)cc23)c1 [Example 301, 2,4(1H,3H)-Pyrimidinedione, 3-[3-(m-methoxyphenyl)-1,2-benzisothiazol-5-yl]-1-methyl-6-(trifluoromethyl)-] | 9.0 | 9.0 | 9.0 | 9.0 | 1.0 | 1.0 | 2.5 | 3.5 | 2.0 | 4.5 | 7.0 | 8.5 | 9.0 | 9.0 | 9.0 | 9.0 | 9.0 | 9.0 | 9.0 | 9.0 | herbicidal effect rating, CYPSE ([3]; Rate 0.1250 kg/ha): 9.0; herbicidal effect rating, ECHORC ([4]; Rate 0.0320 kg/ha): 9.0; herbicidal effect rating, ECHORC ([4]; Rate 0.0620 kg/ha): 9.0; herbicidal effect rating, ECHORC ([4]; Rate 0.1250 kg/ha): 9.0
C[C@H](Br)[C@H](Br)c1nsc2ccc(-n3c(=O)cc(C(F)(F)F)n(C)c3=O)cc12 [Example 302, 2,4(1H,3H)-Pyrimidinedione, 3-[3-(1,2-dibromopropyl)-1,2-benzisothiazol-5-yl]-1-methyl-6-(trifluoromethyl)-, (1R,2S)-] | 7.0 | 7.0 | 9.0 | 9.0 | 1.0 | 4.5 | 7.0 | 8.0 | 0.0 | 0.0 | 9.0 | 9.0 | 8.0 | 8.0 | 8.5 | 8.5 | 4.5 | 4.5 | 6.0 | 8.5 | herbicidal effect rating, CYPSE ([3]; Rate 0.1250 kg/ha): 4.5; herbicidal effect rating, ECHORC ([4]; Rate 0.0320 kg/ha): 4.0; herbicidal effect rating, ECHORC ([4]; Rate 0.0620 kg/ha): 5.0; herbicidal effect rating, ECHORC ([4]; Rate 0.1250 kg/ha): 8.0
C[C@@H](Br)[C@H](Br)c1nsc2ccc(-n3c(=O)cc(C(F)(F)F)n(C)c3=O)cc12 [Example 303, 2,4(1H,3H)-Pyrimidinedione, 3-[3-(1,2-dibromopropyl)-1,2-benzisothiazol-5-yl]-1-methyl-6-(trifluoromethyl)-, (1R,2R)-] | 7.0 | 9.0 | 9.0 | 9.0 | 2.0 | 4.5 | 5.0 | 7.5 | 2.0 | 2.0 | 8.5 | 9.0 | 8.0 | 8.0 | 8.5 | 8.5 | 0.0 | 4.0 | 6.0 | 9.0 | herbicidal effect rating, CYPSE ([3]; Rate 0.1250 kg/ha): 5.0; herbicidal effect rating, ECHORC ([4]; Rate 0.0320 kg/ha): 2.5; herbicidal effect rating, ECHORC ([4]; Rate 0.0620 kg/ha): 7.5; herbicidal effect rating, ECHORC ([4]; Rate 0.1250 kg/ha): 9.0
Cn1c(C(F)(F)F)cc(=O)n(-c2ccc3snc(CN(C(=O)OC(C)(C)C)S(C)(=O)=O)c3c2)c1=O [Example 304, Carbamic acid, {{5-[3,6-dihydro-3-methyl-2,6-dioxo-4-(trifluoromethyl)-1(2H)-pyrimidinyl]-1,2-benzisothiazol-3-yl}methyl}(methylsulfonyl)-, tert-butyl ester] | 0.0 | 7.0 | 7.0 | 9.0 | 0.0 | 2.0 | 4.0 | 4.0 | 0.0 | 0.0 | 0.0 | 0.0 | 0.0 | 4.0 | 9.0 | 9.0 | 0.0 | 0.0 | 0.0 | 0.0 | herbicidal effect rating, CYPSE ([3]; Rate 0.1250 kg/ha): 0.0; herbicidal effect rating, ECHORC ([4]; Rate 0.0320 kg/ha): 0.0; herbicidal effect rating, ECHORC ([4]; Rate 0.0620 kg/ha): 0.0; herbicidal effect rating, ECHORC ([4]; Rate 0.1250 kg/ha): 0.0
COC(=O)CN(Cc1nsc2ccc(-n3c(=O)cc(C(F)(F)F)n(C)c3=O)cc12)S(C)(=O)=O [Example 306, Glycine, N-{{5-[3,6-dihydro-3-methyl-2,6-dioxo-4-(trifluoromethyl)-1(2H)-pyrimidinyl]-1,2-benzisothiazol-3-yl}methyl}-N-(methylsulfonyl)-, methyl ester] |  |  |  | 0.0 |  |  |  | 0.0 |  |  |  | 0.0 |  |  |  | 0.0 |  |  | 0.0 | 0.0 | 
CC(=O)c1nsc2ccc(-n3c(=O)cc(C(F)(F)F)n(C)c3=O)cc12 [Example 307, 2,4(1H,3H)-Pyrimidinedione, 3-(3-acetyl-1,2-benzisothiazol-5-yl)-1-methyl-6-(trifluoromethyl)-] | 6.0 | 8.0 | 9.0 | 9.0 | 5.0 | 6.0 | 8.5 | 9.0 | 0.0 | 1.0 | 6.5 | 9.0 | 6.5 | 6.5 | 6.5 | 7.5 | 0.0 | 3.5 | 9.0 | 9.0 | herbicidal effect rating, CYPSE ([3]; Rate 0.1250 kg/ha): 7.0; herbicidal effect rating, ECHORC ([4]; Rate 0.0320 kg/ha): 6.0; herbicidal effect rating, ECHORC ([4]; Rate 0.0620 kg/ha): 5.0; herbicidal effect rating, ECHORC ([4]; Rate 0.1250 kg/ha): 8.5
